According to patent US7732401B2, “Inhibitor of TGF-β activation reaction” (Riken, priority 2007, dated 2010):
Where no end group is shown, it is not given here.

Assays:
[1] = tested on: TGF-β1; assay: Amount of TGF-β1 in hepatic tissues of LPS-preadministered partially-hepatectomized mice (ELISA); format: in vivo, mouse; conditions: 200 μg/head i.v.; for Hepatic TGF-β1 Contents: Table 3
Protocol: A liver extract was prepared from approximately 100 mg of the hepatic tissues prepared for the use in protein quantitation in 11.2 above, according to the method of Okuno M. et al. (Okuno M. et al., Gastroenterology 2001; 120: 1784-1800). The amount of TGF-β1 in the extract was quantitated using an ELISA kit manufactured by PROMEGA. The quantitated TGF-β1 amount was presented as a pg/mg of protein.
A liver extract was prepared from approximately 30 mg of the hepatic tissues prepared for the use in protein quantitation in 11.2 above, according to the method of Okuno M. et al. (Okuno M. et al., Gastroenterology 2001; 120: 1784-1800). The amount of TGF-β1 in the extract was determined using an ELISA kit manufactured by PROMEGA. The amount of TGF-β1 was presented as a pg/mg protein of the sample. Other conditions were the same as those described in Example 2.

[2] = tested on: endotoxin (LPS)-preadministered partially-hepatectomized mice; assay: LPS-preadministered partially-hepatectomized mice model for impaired liver regeneration, PCNA staining; format: in vivo, mouse; conditions: Example 5, 200 μg/head i.v., 8 times; for percentage of PCNA positive cells: 48 hours after PH, FIG. 10; for improvement of impaired liver regeneration caused by preadministration of LPS: PCNA staining, FIG. 9
Protocol: For the experiment, 26 five-week-old male C3H/HeN mice were used. After completion of quarantine and environmental acclimatization, the mice were divided into the following 5 groups according to the body weight of each mouse on the day of grouping. These include, a group to which saline was preadministered and saline was then administered (G1: n=6); a group to which LPS was preadministered and saline was then administered (G2: n=6); a group to which LPS was preadministered and QP peptide was then administered (G3: n=4); a group to which LPS was preadministered and QPA peptide was then administered (G4: n=4); and a group to which LPS was preadministered and T200 peptide was then administered (G5: n=6) (Table 2).
After starting the test, 7 μg of LPS (saline in the case of G1) was intraperitoneally administered. Forty-eight hours later, partial hepatectomy was carried out on all the mice. Another forty-eight hours later, all the surviving mice were subjected to an autopsy. In the autopsy, blood was collected. Thereafter, 1 to 3 mice from each group were subjected to systemic perfusion with 4% paraformaldehyde (PFA), and the liver was then excised. All the excised lobes were embedded in an embedding agent “Tissue Mount” in a frozen state. On the other hand, the remaining 1 to 3 mice from each group were not subjected to systemic perfusion, and a portion of the liver was fixed with formalin, and the remaining portion was collected to be used as a frozen sample (used for mRNA and for protein quantitation). The organ that had been fixed with formalin was processed into a block, and it was then preserved together with the frozen sample in a deep freezer at −80° C.
Preparation method: A small amount of saline was added to one vial container that contained 5 mg of LPS, and it was then dissolved therein. Subsequently, the resultant solution was transferred into another container, and saline was then gradually added thereto to a total amount of 5 mL. The thus obtained solution was defined as a 1 μg/μL solution. 350 μL was collected from the obtained solution by precise weighing, and it was then added to a container that contained 4.65 mL of a sterilized normal saline solution (solvent). Thereafter, the mixed solution was filtrated and sterilized using a 0.22-μm filter, and the resultant was used as a sample to be administered. 7.2 LPS Administration Method Dose: 7 μg/head Administration route: intraperitoneal administration Administration volume: 0.1 mL/head Administration number: once (single administration) Administration timing: 48 hours before partial hepatectomy Target animal: G2 to G5 (To G1, saline was administered.) 8. Administration of Test Substance 8.1 Preparation of Peptide-Administering Sample Preparation frequency: once Preparation method: A peptide was dissolved in saline to a concentration of 2 mg/ml, and the resultant was used as a sample to be administered. Preservation method: The sample was preserved in a refrigerator before use. (The temperature was set at 4° C.) 8.2 Peptide Administration Method Dose: 200 μg/head Administration route: intravenous administration Administration volume: 0.11 mL/head Administration timing: 50, 38, 24, 14 and 2 hours before, and 10, 24 and 34 after partial hepatectomy Number of administration: twice/day, for 4 days (in principle, at 9:00 and at 19:00), 8 times in total Target animal: […] (To G1 and G2, saline was administered.) 9. Partial Hepatectomy (⅔ Partial Hepatectomy; PH) 9.1 Treating Method
Using a rotary microtome (Leica), a hepatic tissue section with a thickness of 5 μm was prepared from the embedded hepatic tissues. A proliferating cell nuclear antigen (PCNA; a proliferating cell marker) was stained according to the previously reported method (Greenwell A. et al., Cancer Lett 1991; 59: 251-256) using a Histofine kit (Nichirei Corporation). […]

Row | Substance | hepatic contents of TGF-β1, times higher than the value of the control group ([1]; Example 2, LPS + PH) | Hepatic TGF-β1 Contents ([1]; Example 2, LPS + PH) [pg/mg protein] | hepatic contents of TGF-β1, times higher than the value of the control group ([1]; Example 5, LPS + PH, FIG. 11) | percentage of PCNA positive cells [2] [%] | improvement of impaired liver regeneration caused by preadministration of LPS [2]
1 | N-52QILSAAAAASP62-C (QILSAAALASP) [QPA peptide, mutant of QP peptide with Lys56, Leu57, Arg58 and Leu59 substituted with Ala] | approximately 1.4 times | 10 ± 11 | ~0.7 times | 70 | significantly improved
2 | N-52QILSQQQQASP62-C [QPQ peptide, mutant of QP peptide with Lys56, Leu57, Arg58 and Leu59 substituted with Gln] | – | – | approximately 1.6 times | 64 | significantly improved
3 | QILSKLRLASP [QP peptide] | – | – | approximately 1.6 times | 66 | significantly improved
4 | TGVVRQWLSRG [T200 peptide, reference compound] | approximately 3 times | 20 ± 26 | 3.1 times | 45 | did not exhibit such an improving effect
